Results from US9718769B2, “Pulverulent compositions of a complex between an acid and a metal and method of preparation thereof” (INNOV'IA 3I, priority 2012, dated 2017).
Entries after “also recorded” stand apart in the source; their conditions may differ. Marks after values point to notes of the source that are not given here.

What was measured:
[1] = tested on: laying hens; assay: Feeding laying hens: laying performance and egg parameters; format: in vivo; conditions: for Albumen / Average weight of the eggs / Consumption index / Daily food intake / Laying frequency / Weight of eggs / Yolk / Final body weight: 0.13% methionine equivalent in feed, mean; for Final body weight: after 6 weeks
Method: Eighty laying hens aged 45 weeks were housed for 6 weeks and were distributed at random into […] equal groups (20 per group). Each hen was kept in an individual cage at a temperature of (20±2° C.) with controlled lighting conditions. All the hens were offered a similar basic diet, with or without addition of DLM, of HMTBA-Ca or of a 50/50 mixture (HMTBA-Ca: […] All the laying hens had free access to drinking water and were fed throughout the 6-week period of the experiment.

[2] = tested on: growing chickens; assay: Feeding growing chickens: growth performance; format: in vivo; conditions: 46-day-old chickens, 0.3% in feed (0.24% finishing phase); mean ± standard deviation
Method: (§1) One hundred and forty-seven commercial chickens (1 day old, 48 g) were housed from day 1 to day 46, including the starting phase (days 1-21) and the finishing phase (days 22-46). All the chickens were randomly distributed in seven equal groups (21 per group), and each group was made up of three subgroups of 7 birds each. Each subgroup was kept in an enclosure at a temperature of (28±2° C.), with controlled lighting conditions. All the chickens were offered a similar basic diet, with or without addition of DLM, HMTBA or HMTBA-Ca at levels of 0 (control) or 0.3% in the starting phase and 0 or 0.24% in the finishing phase (Table 4). All the chickens had free access to food and drinking water throughout the test period of 46 days. The weight of the chickens was measured every week and food intake was monitored throughout the experiment.
(§2) At the end of the experiment, the birds were weighed individually and sacrificed. The abdominal fat, the muscles of the thigh and of the breast were taken, lyophilized and weighed.

[3] = tested on: growing chickens; assay: Feeding growing chickens: apparent digestibility of nutrients; format: in vivo; conditions: 0.3% in feed; for Apparent digestibility of ash / Apparent digestibility of crude fats / Apparent digestibility of crude proteins / Apparent digestibility of dry matter: 46-day chickens, mean ± standard deviation for 10 chickens
Method: as §1
The excrement of the chickens was collected for the 3 days following the 42nd day of the experiment, were frozen and stored (at −20° C.) for later chemical analyses.

[4] = tested on: growing chickens; assay: Feeding growing chickens: composition of the carcass; format: in vivo; conditions: for DB, weight of the muscles of the breast / DL, weight of the muscles of the thigh / PDAT, ratio of the weight of the abdominal fat to that of the eviscerated chicken / PDB, ratio of the weight of the muscles of the breast (without bone or skin) to that of the eviscerated chicken / PDL, ratio of the weight of the muscles of the thigh (without bone or skin) to that of the eviscerated chicken: 46-day chickens, mean ± standard deviation
Method: as §1, §2

[5] = Crystallinity by DSC in isothermal mode and X-ray diffraction; format: physicochemical; conditions: deduced from DSC (R) or X-ray diffraction (T7)
Method: Samples T7 and R were analysed by X-ray diffraction using a Bruker APEX-II Quasar diffractometer equipped with a molybdenum microsource (λ=0.71073 Å). Each sample was ground beforehand in a mortar for two minutes. Each of the powders thus obtained is then transferred to a capillary with diameter of 0.5 mm that is transparent to X-rays, and is then mounted on a goniometer. The recording characteristics are perfectly identical for each sample, namely: […]

CSCCC(N)C(=O)O (racemic) [DLM, DL-methionine, reference compound]
Albumen ([1]; 6 weeks): 38.38 g/egg | Average weight of the eggs ([1]; 6 weeks): 63.4 g/egg | Consumption index ([1]; 6 weeks): 1.87 g feed/g egg | Daily food intake ([1]; 6 weeks): 112.4 g/day | Laying frequency ([1]; 6 weeks): 95% | Weight of eggs ([1]; 6 weeks): 60.3 g/day | Yolk ([1]; 6 weeks): 16.38 g/egg | Final body weight [1]: 1834.9 g/hen | Feeding:gain [2]: 2.01 ± 0.10 g:g | Final body weight [2]: 3.17 ± 0.15^ab kg/chicken | Food intake [2]: 141.51 ± 0.24 g/chicken/day | Gain in body weight [2]: 70.47 ± 3.37^ab g/chicken/day | Apparent digestibility of ash [3]: 56.02 ± 1.01^b % | Apparent digestibility of crude fats [3]: 86.15 ± 0.93% | Apparent digestibility of crude proteins [3]: 63.70 ± 2.85^cd % | Apparent digestibility of dry matter [3]: 78.22 ± 1.70^c % | DB, weight of the muscles of the breast ([4]; 0.3% in feed): 596.88 ± 56.68^abc g | DL, weight of the muscles of the thigh ([4]; 0.3% in feed): 586.03 ± 23.43^ab g | PDAT, ratio of the weight of the abdominal fat to that of the eviscerated chicken ([4]; 0.3% in feed): 1.88 ± 0.43^a % | PDB, ratio of the weight of the muscles of the breast (without bone or skin) to that of the eviscerated chicken ([4]; 0.3% in feed): 22.77 ± 1.44^b % | PDL, ratio of the weight of the muscles of the thigh (without bone or skin) to that of the eviscerated chicken ([4]; 0.3% in feed): 20.12 ± 0.22^a %

CSCCC(O)C(=O)[O-].CSCCC(O)C(=O)[O-].[Ca+2] (stereo not drawn) [HMTBA-Ca, (HMTBA)2Ca]
Albumen ([1]; 6 weeks): 39.53 g/egg | Average weight of the eggs ([1]; 6 weeks): 64.9 g/egg | Consumption index ([1]; 6 weeks): 1.82 g feed/g egg | Daily food intake ([1]; 6 weeks): 112.7 g/day | Laying frequency ([1]; 6 weeks): 95% | Weight of eggs ([1]; 6 weeks): 62.0 g/day | Yolk ([1]; 6 weeks): 16.47 g/egg | Albumen content of the eggs, more relative to the eggs of hens fed with DLM ([1]; 6 weeks, relative to DLM): 3% | Average weight of the eggs, higher relative to that obtained with DLM ([1]; 6 weeks, relative to DLM): 2.3% | Final body weight [1]: 1897.2 g/hen | Feeding:gain [2]: 1.91 ± 0.12 g:g | Final body weight [2]: 3.38 ± 0.28^ab kg/chicken | Food intake [2]: 144.53 ± 20.93 g/chicken/day | Gain in body weight [2]: 75.08 ± 6.18^ab g/chicken/day | Apparent digestibility of ash [3]: 44.62 ± 0.89^a % | Apparent digestibility of crude fats [3]: 90.28 ± 0.20^c % | Apparent digestibility of crude proteins [3]: 66.44 ± 0.37^cd % | Apparent digestibility of dry matter [3]: 81.80 ± 0.32^d % | Digestibility of the nutrients relative to the other two forms of methionine (in words) ([3]; chickens, 46 days): far better digestibility | DB, weight of the muscles of the breast ([4]; 0.3% in feed): 617.54 ± 45.21^bc g | DL, weight of the muscles of the thigh ([4]; 0.3% in feed): 588.64 ± 38.07^ab g | PDAT, ratio of the weight of the abdominal fat to that of the eviscerated chicken ([4]; 0.3% in feed): 2.49 ± 0.59^b % | PDB, ratio of the weight of the muscles of the breast (without bone or skin) to that of the eviscerated chicken ([4]; 0.3% in feed): 22.98 ± 3.00^b % | PDL, ratio of the weight of the muscles of the thigh (without bone or skin) to that of the eviscerated chicken ([4]; 0.3% in feed): 22.06 ± 1.64^c % | Percentage of abdominal fat (in words) ([4]; chickens, 0.3% in feed, 46 days): increase in the percentage of abdominal fat | Weight of the muscles of the thigh and breast relative to DLM / the other groups (in words) ([4]; chickens, 46 days): significantly higher; also recorded: highest weight of muscles of the thigh and breast

CSCCC(O)C(=O)[O-].CSCCC(O)C(=O)[O-].[Ca+2] (stereo not drawn) [R, (HMTBA)2Ca]
Degree of crystallinity [5]: 100%
